Source: paper PMC5394417, “Investigating the molecular mechanism of positive and negative allosteric modulators in the calcium-sensing receptor dimer” (Scientific Reports, 2017)
“And” between values parts separate entries of the source, which are not always exact repeats. Identical values can stand only once.

Biological target: T1, HA-L797A CaSR mutant (Rattus norvegicus, UniProt P48442, L797A)
T1 construct: mGluR5 signal peptide (N); expressed in transfected cells; host or cells: HEK293T
T1 sequence (P48442 20-1079 L797A): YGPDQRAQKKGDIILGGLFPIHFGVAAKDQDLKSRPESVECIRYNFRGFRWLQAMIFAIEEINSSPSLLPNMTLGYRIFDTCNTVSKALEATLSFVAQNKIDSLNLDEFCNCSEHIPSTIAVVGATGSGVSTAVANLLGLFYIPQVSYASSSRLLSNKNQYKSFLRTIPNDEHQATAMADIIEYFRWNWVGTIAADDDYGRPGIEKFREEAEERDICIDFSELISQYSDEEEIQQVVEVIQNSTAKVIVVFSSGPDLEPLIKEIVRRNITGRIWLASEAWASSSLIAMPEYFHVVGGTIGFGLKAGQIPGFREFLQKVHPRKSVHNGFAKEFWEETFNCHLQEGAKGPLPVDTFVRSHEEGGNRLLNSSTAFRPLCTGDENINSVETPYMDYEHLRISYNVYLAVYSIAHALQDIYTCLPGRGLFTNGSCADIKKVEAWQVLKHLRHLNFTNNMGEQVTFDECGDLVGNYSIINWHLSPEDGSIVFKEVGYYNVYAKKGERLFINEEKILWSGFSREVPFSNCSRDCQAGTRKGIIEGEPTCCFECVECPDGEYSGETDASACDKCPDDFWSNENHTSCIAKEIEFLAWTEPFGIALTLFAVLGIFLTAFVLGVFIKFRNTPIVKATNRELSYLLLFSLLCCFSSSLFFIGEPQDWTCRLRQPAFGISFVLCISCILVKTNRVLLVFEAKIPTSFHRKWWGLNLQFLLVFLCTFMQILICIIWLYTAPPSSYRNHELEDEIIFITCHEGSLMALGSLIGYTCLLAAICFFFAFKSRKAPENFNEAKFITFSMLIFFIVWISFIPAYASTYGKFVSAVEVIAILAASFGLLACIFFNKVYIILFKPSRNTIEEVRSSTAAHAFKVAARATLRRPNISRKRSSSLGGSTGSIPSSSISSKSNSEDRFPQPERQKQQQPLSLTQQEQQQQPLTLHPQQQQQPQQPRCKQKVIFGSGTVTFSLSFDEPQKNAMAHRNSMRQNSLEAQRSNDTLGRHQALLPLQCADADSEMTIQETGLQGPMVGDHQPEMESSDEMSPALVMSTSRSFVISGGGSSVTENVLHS
Assay: IP-One assay, HEK293T transiently transfected
Format: cell-based

EC50 (Ca^2+ alone): 11.7 mM
Hill coefficient ± S.E.M. (Ca^2+ alone): 3.22 ± 0.71
pEC50 ± S.E.M. (Ca^2+ alone): 1.94 ± 0.04
Max ± S.E.M. (normalized to maximum response of WT CaSR): 25% and 25 ± 3.5%
Structure (SMILES): [Ca+2] [Ca^2+]
